Tests used:
Beta-lactamase VIM-2 [1] = biological target: T1, Beta-lactamase VIM-2 (Pseudomonas aeruginosa, UniProt Q9K2N0); experiment: Inhibition of Pseudomonas aeruginosa 301-5473 metallo-beta-lactamase VIM-2 expressed in Escherichia coli BL21(DE3) using nitrocefin as substrate preincubated for 5 mins followed by substrate addition measured every 17 secs for 20 mins by microplate reader analysis
[2] = biological target: Beta-lactamase VIM-2 (Pseudomonas aeruginosa) (UniProt Q9K2N0); experiment: Inhibition of Pseudomonas aeruginosa 301-5473 metallo-beta-lactamase VIM-2 expressed in Escherichia coli BL21(DE3) using nitrocefin as substrate at 500 uM preincubated for 5 mins followed by substrate addition measured every 17 secs for 20 mins by microplate reader analysis relative to control
Beta-lactamase VIM-2 [3] = biological target: T1, Beta-lactamase VIM-2; experiment: Binding affinity to Pseudomonas aeruginosa 301-5473 metallo-beta-lactamase VIM-2 expressed in Escherichia coli BL21(DE3) measured for 15 secs by SPR analysis
Beta-lactamase VIM-2 [4] = biological target: T1, Beta-lactamase VIM-2; experiment: Reversible binding affinity to Pseudomonas aeruginosa 301-5473 metallo-beta-lactamase VIM-2 expressed in Escherichia coli BL21(DE3) measured for 15 secs by SPR analysis
[5] = biological target: Beta-lactamase VIM-2 (Pseudomonas aeruginosa) (UniProt Q9K2N0); conditions: 301-5473
Description: Reversible binding affinity to Pseudomonas aeruginosa 301-5473 metallo-beta-lactamase VIM-2 expressed in Escherichia coli BL21(DE3) assessed as association constant measured for 30 secs by SPR analysis

Beta-lactamase VIM-2 [6] = biological target: T1, Beta-lactamase VIM-2; experiment: Dissociation rate constant to Pseudomonas aeruginosa 301-5473 metallo-beta-lactamase VIM-2 expressed in Escherichia coli BL21(DE3) by SPR analysis

Row | SMILES | IC50 (Beta-lactamase VIM-2 [1]) [µM] | inhibition [2] [%] | Kd (Beta-lactamase VIM-2 [3]) [µM] | Kd (Beta-lactamase VIM-2 [4]) [µM] | Ka [5] [×10⁴ /M/s] | koff (Beta-lactamase VIM-2 [6]) [s⁻¹]
1 | CC(=O)c1ccccc1C(=O)O | > 1000 |  |  |  |  | 
2 | N#Cc1c(C(F)(F)F)cc(-c2cccs2)nc1O | 314 | > 15 | 229 |  |  | 
3 | O=C(O)CSc1ccnc2cc(Cl)ccc12 | 205 | > 15 | 264 |  |  | 
4 | Cn1c(S)nnc1C(F)(F)F | 232 | > 15 | 145 |  |  | 
5 | CCCc1ccc(C(=O)CCC(=O)O)cc1 | 287 | > 15 | 173 |  |  | 
6 | O=C(O)c1ccccc1C(=O)c1ccccc1 [2-BENZOYLBENZOIC ACID] | 8 |  |  |  |  | 
7 | O=C(O)c1ccccc1C(=O)c1ccc(Cl)cc1 | 12 |  |  |  |  | 
8 | O=C(O)c1cncc(C#Cc2ccccc2)c1 | 298 | > 15 | 446 |  |  | 
9 | C[C@H](CS)C(=O)N1CCC[C@H]1C(=O)O [CAPTOPRIL] | 3.5 |  |  | 0.6 | 4.2 | 0.025
10 | N#Cc1coc2ccccc2c1=O | 1430 | > 15 | 999 |  |  | 
11 | O=C(O)c1ccccc1Cc1ccccc1 | > 1000 |  |  |  |  | 
12 | C[C@@H](O)[C@H]1C(=O)N2C(C(=O)O)=C(S[C@@H]3CN[C@H](C(=O)N(C)C)C3)[C@H](C)[C@H]12 [MEROPENEM] |  |  |  | 12 |  | 
13 | O=C(O)CCCc1c[nH]c2ccccc12 | 757 | > 15 | 274 |  |  | 
14 | O=C(O)c1ccccc1C(=O)c1ccc(F)cc1 | 14 | > 15 | 9 |  |  | 
15 | COC(=O)c1ccccc1C(=O)c1ccccc1 | > 3000 |  |  |  |  | 
